One series has as its system Candida albicans. The note with it: 99.9% reduction; 1 hr incubation at 37° C.; red light 600-700 nm, 50 mW/cm^2 for 10 min, 30 J/cm^2. On the procedure: (§1) The bacterial and fungal cells (ATCC of Staphylococcus aureus, Escherichia coli and Pseudomonas aeruginosa strains for the bacteria, Candida albicans for the yeasts) are grown in a Tryptic Soy Broth (TSB) liquid medium at 37° C. for 16-20 hr (bacteria) and in Sabouraud Dextrose Broth (SDB) at 37° C. for 24 hr (yeasts) in an aerobic atmosphere.
(§2) The cells are collected for centrifugation (2000 g, 15 min.) and re-suspended in sterile PBS (pH=7.3±0.1).
(§3) Exposure of the microorganisms to the photosensitiser and to the light source is carried out in wells of sterile, polystyrene, Microtiter plates, in PBS containing the desired concentration of photosensitiser. The plate is left to incubate at room temperature, for 5 min for the bacteria and for 1 hr at 37° C. for the yeasts. For lighting with red visible light a halogen lamp is used, model PDT 1200 Waldmann (A=600-700 nm) at 50 mW/cm^2 for 10 min and the total dose of light consequently used in the assay is of 30 J/cm^2.
(§4) After illuminating the bacterial or fungal suspension, and suitable dilutions thereof in sterile PBS, they are inoculated on agar plates to determine the number of residual UFCs. The plates are incubated at 37° C. for 24 hours and the results are recorded at the end of this period.

For a further series, the system named is Staphylococcus aureus. The note with it: 99.9% reduction; 5 min incubation; red light 600-700 nm, 50 mW/cm^2 for 10 min, 30 J/cm^2. The method, then: as §1, §2, §3, §4
For a further series, the system named is Escherichia coli. The note with it: 99.9% reduction; 5 min incubation; red light 600-700 nm, 50 mW/cm^2 for 10 min, 30 J/cm^2. The method, then:
as §1, §2, §3, §4

In the next series the test system is Pseudomonas aeruginosa. The note with it: 99.9% reduction; 5 min incubation; red light 600-700 nm, 50 mW/cm^2 for 10 min, 30 J/cm^2. On the procedure: as §1, §2, §3, §4
Series [1] can be described thus: Stability in water by HPLC (loss of titre and purity after 8 hours). The format is physicochemical. The note with it: 1 mg/mL in DMSO diluted 1:10 with deionised water, HPLC at time 0 and after 8 hours; result in words. On the procedure:
Protocol: each sample is dissolved in DMSO at the concentration of 1 mg/mL and then diluted 1:10 with deionised water. The solution is analysed in HPLC at time 0 and after 8 hours and any loss of titre and/or of purity is recorded by the following method: Column: Luna C18 (2) 150*4.6 mm (5 μm);
elution in gradient of AcOH 0.1% in water (Eluent A) and methanol (Eluent B) with % B 10-100 in 20 min or 40-100 depending on the polarity of the injected compound; flow 1 mL/min; temperature: 25° C.; injection […]; detection at 686 nm, bw 20 nm.

Marks after values point to notes of the source that are not given here. A value given as a limit tells only on which side of the number the result lay.

Take “{bis-[3-(N-methyl-piperidin-1-ium)propyl-dipropvlsilyloxy]}silicon(IV) phthalocyanine dichloride [Compound 4]”: the “MFC, 3 log (μM) C. albicans” value against Candida albicans is on record as 3.13* μM. For the same substance, the “MBC, 3 log (μM) S. aureus” value in the series on Staphylococcus aureus came to 0.03 μM. Moreover, in the series with Escherichia coli, the “MBC, 3 log (μM) E. coli” value was 6.25 μM. For the same substance, the “MBC, 3 log (μM) P. aeruginosa” value in the series on Pseudomonas aeruginosa was found to be 50 μM. Also, in series [1], the “Loss of purity (% area)” value is given as “insignificant (of ≦ to 0.1% for the loss of purity)” and the “Loss of titre (%)” value is listed as “insig- nificant”.
On to “{bis-[3-(m-N,N,N-trimethylammoniumphenyloxy)propyl-dipropylsilyloxyl]}silicon(IV) phthalocyanine dichloride [Compound 5]”, for which the “MFC, 3 log (μM) C. albicans” value in the series on Candida albicans was 50 μM. In addition, in the series with Staphylococcus aureus, the “MBC, 3 log (μM) S. aureus” value came out at 0.1 μM. Moreover, in the series with Escherichia coli, the “MBC, 3 log (μM) E. coli” value is listed as 25 μM. In addition, in the series with Pseudomonas aeruginosa, the “MBC, 3 log (μM) P. aeruginosa” value came to 25 μM. Further, in series [1], the “Loss of purity (% area)” value is listed as “insignificant (of ≦ to 0.1% for the loss of purity)” and the “Loss of titre (%)” value is on record as “insig- nificant”.
Consider “{bis-[bis-(3-N,N,N-trimethylammoniumpropyl)]propylsilyloxy}silicon(IV) phthalocyanine tetrachloride [Compound 2]”, for which the “MFC, 3 log (μM) C. albicans” value in the series on Candida albicans is on record as over 50 μM. Moreover, in the series with Staphylococcus aureus, the “MBC, 3 log (μM) S. aureus” value was 0.25 μM. The “MBC, 3 log (μM) E. coli” value in the series with Escherichia coli worked out at 6.25 μM. In addition, the “MBC, 3 log (μM) P. aeruginosa” value against Pseudomonas aeruginosa is listed as 6.25 μM. In addition, in series [1], the “Loss of purity (% area)” value is “insignificant (of ≦ to 0.1% for the loss of purity)” and the “Loss of titre (%)” value is on record as “insig- nificant”.
Turning to “{bis-[bis-(p-N,N,N-trimethylammoniumphenyl)]-3-(N-methyl-piperidine-1-ium)propylsilyloxy}silicon(IV) phthalocyanine hexachloride [Compound 1]”, the “MFC, 3 log (μM) C. albicans” value against Candida albicans worked out at 12.5 μM. For the same substance, the “MBC, 3 log (μM) S. aureus” value in the series with Staphylococcus aureus amounted to 0.78 μM. In addition, the “MBC, 3 log (μM) E. coli” value with Escherichia coli came to 6.25 μM. Further, in the series with Pseudomonas aeruginosa, the “MBC, 3 log (μM) P. aeruginosa” value is reported as 6.25 μM. Also, in series [1], the “Loss of purity (% area)” value is recorded as “insignificant (of ≦ to 0.1% for the loss of purity)” and the “Loss of titre (%)” value is “insig- nificant”.
For the substance “{bis-[bis-(p-N,N,N-trimethylammoniumphenyl)]propylsilyloxy}silicon(IV) phthalocyanine tetrachloride [Compound 3]”, the “MFC, 3 log (μM) C. albicans” value in the series on Candida albicans was over 50 μM. Besides, the “MBC, 3 log (μM) S. aureus” value against Staphylococcus aureus turned out to be 0.05 μM. For the same substance, the “MBC, 3 log (μM) E. coli” value against Escherichia coli worked out at 3.13 μM. Besides, in the series with Pseudomonas aeruginosa, the “MBC, 3 log (μM) P. aeruginosa” value is recorded as 1.56 μM. In series [1], the “Loss of purity (% area)” value is given as “insignificant (of ≦ to 0.1% for the loss of purity)” and the “Loss of titre (%)” value is recorded as “insig- nificant”.
